Laboratory results as given in patent US20110045032A1 (priority 2001, published 2011).
Entries after “also recorded” stand apart in the source; their conditions may differ.

What was measured:
Format in all cases: in vivo
[1] = system: dust mite-sensitized rabbits; assay: BALF cell count, nebulized (Example 26)
Protocol: (§1) This study defines the effect of 7 days of treatment with DHEA-S on allergen-induced bronchial hyperresponsiveness (BHR), early and late phase responses, and pulmonary inflammation in dust mite-sensitized rabbits. Baseline BHR and inflammation were first determined. DHEA-S (5 mg/ml, 2 ml nebulized) or an equivalent volume of vehicle was delivered once per day via nebulization through a pediatric facemask covering the nose and mouth on days 1 through 7. On day 8, 24 hours after the last treatment, allergen challenge, pulmonary function testing and BALF were performed. On day 9, 24 hours after allergen challenge a histamine challenge was performed and the lungs removed for histology. The study includes 5 animals studied under a crossover design. There was a 3 week resting period between study arms and lungs were taken during the second treatment arm only. The treatment with DHEA-S led to the changes in the disease status of the animals described in the following paragraph.

[2] = system: dust mite-sensitized rabbits; assay: BALF inflammation, DHEA-S vs Pulmicort vs saline (Example 27)
Protocol: (§2) This follow-up study compared the effects of DHEA-S and Puimicort® (budesonide inhalation suspension) on allergen-induced bronchial hyperresponsiveness (BHR) to histamine and pulmonary inflammation in dust mite-sensitized rabbits. The study included 18 animals divided into 3 treatment groups: saline, DHEA-S, and Puimicort. The animals were treated for once per day for 5 consecutive days via nebulization through a pediatric facemask covering the nose and mouth. Treatments were DHEA-S, 10 mg/day (5 mg/ml), Pulmicort Respules, 0.5 mg/day (0.5 mg/2 ml, note: this is the standard human dose) or saline (2 ml). A dust mite challenge was performed on day 4, and development of airway inflammation was assessed 6 hours and 30 hours after dust mite challenge. Histamine sensitivity was assessed 30 hours after challenge (day 5) and the lungs removed for histology.

[3] = system: ragweed-sensitized mice; assay: Bronchial hyperresponsiveness to methacholine, whole-body plethysmograph (Example 28)
Protocol: Two groups of mice were sensitized with two intraperitoneal injections and one intranasat administration of ragweed allergen (Ambrosia artemistifolia) on days 0, 4 and 11 respectively. A third group was treated similarly with saline to serve as non-allergic controls. The next two days, the treatment group animals were exposed to DHEA-S delivered as an aerosol (5 mg/ml suspension in saline, 2 ml nebulized) using the whole-body plethysmograph system (Buxco Electronics, Inc., Sharon, Conn.) and a DeVilbiss ultrasonic nebulizer. Twenty-four hours after the last drug exposure, mice were challenged with increasing concentrations of methacholine to determine bronchial hyperresponsiveness and then lavaged to determine relative changes in cell populations in BAL fluid.
The ragweed only group responded in a dose-related fashion with increasing Penh value over the range of methacholine tested and a mean area under the curve of 7488.8.

[4] = system: dust mite-sensitized cynomolgus monkeys; assay: Early phase pulmonary function response to allergen (Example 24)
Protocol: This study defines the effect of 5 days of treatment with DHEA-S on allergen-induced early phase response, and pulmonary inflammation in dust mite-sensitized cynomolgus monkeys. Baseline parameters were measured the week prior to treatment. DHEA-S (5 mg/ml, 2 ml nebulized) or an equivalent volume of saline was delivered once per day via nebulization (Pari LC+) through a canine facemask covering the nose and mouth on days 1 through 5. Allergen challenge and pulmonary function testing were performed on day 3 several hours after drug treatment, and broncho-alveolar lavage fluid BALF) was collected 48 hours post-challenge. The study includes 6 animals studied under a crossover design with a minimum of 4 weeks rest between study arms. The treatment with DHEA-S led to the following changes in the disease status of the animals:
Effects on airway obstruction were measured by changes in dynamic compliance in response to allergen challenge. Allergic Cynomolgus monkeys were monitored for 15 minutes following allergen challenge and the values plotted against time. Changes in dynamic compliance were determined by the % change in compliance as compared to the animal's initial saline value recorded prior to challenge. Changes in response to allergen and/or treatment were calculated using the area under the curve (AUC) where an AUC unit is defined as % change×minutes. Treatment with DHEA-S attenuated the drop in airway compliance following allergen challenge by 87% as compared to saline treatment. With saline treatment, the total AUC was −394±127 units compared to −49±116 units for animals treated with DHEA-S. See, FIGS. 4.3.1.1; 4.3.1.2. This difference in the total AUC for vehicle and DHEA-S treated animals was determined to be significant using Student's t-test for paired observations, p=0.035. Likewise, treatment with DHEA-S attenuated the increase in airway resistance following allergen challenge by 90% as compared to saline treatment.

[5] = Acute inhalation toxicity in dogs; conditions: dog, in vivo, inhaled; preclinical toxicology studies; not achieved at this dose; read-out: maximum tolerated dose
Protocol: (§3) Other findings were minor in nature and detailed in the reports that follow. Therefore, nebulization of an aqueous solution was determined to be feasible but not practical due to the inability to achieve a sufficient safety factor to support clinical trials.

[6] = system: dogs; assay: Acute inhalation toxicity in dogs; conditions: inhalation
Protocol: as §3

[7] = system: dust mite-sensitized rabbits; assay: Lung histology (Example 26); conditions: blinded veterinary pathologist, scale of 0 to 4; vs vehicle control
Protocol: as §1, with “There was a 3 week resting period between study arms and lungs were taken during the second treatment arm only. The treatment with DHEA-S led to the changes in the disease status of the animals described in the following paragraph.” left out
Effects on interstitial inflammation were evaluated by histology. A veterinary pathologist evaluated hematoxylin and eosin stained sections in a blinded manner. Sections were scored for inflammatory parameters using a scale of 0 to 4 with 0 representing no finding and 4 representing severe. […] All of the following parameters were scored lower in the DHEA-S treated lungs compared to the vehicle control group: cuffing of the airways and blood vessels by inflammatory cells, bronchial-associated lymphoid tissue hyperplasia, and bronchitis/bronchiolitis. […]

[8] = system: dust mite-sensitized rabbits; assay: Lung histology (Example 27); conditions: compared to saline
Protocol: as §2
Analysis of lung sections indicated a moderate level of pulmonary inflammation in all groups. No differences in the level of monocyte phagocytic hyperplasia, airway and blood vessel cuffing by inflammatory cells, pneumonitis, pneumonia, bronchial associated lymphoidal tissue hyperplasia, septal edema, hemorrhage, alveolar edema, or bronchitis/bronchiolitis was observed, although monocyte phagocytic hyperplasia tended to be higher in the Pulmicort and DHEA-S groups, and bronchitis tended to be lower.

[9] = 6 hours after allergen-challenge, compared to vehicle control
[10] = 6 hours after allergen challenge, compared to Pulmicort

Structure (SMILES): CC12CCC3C(CC=C4CC(OS(=O)(=O)[O-])CCC43C)C1CCC2=O.[Na+] (stereo not drawn) [DHEA-S, Dehydroepiandrosterone sulfate]
- lower numbers of eosinophils in BALF [1, 9]: 52%
- lower numbers of macrophages in BALF [1, 9]: 68%
- lower numbers of neutrophils in BALF [1, 9]: 69%
- effect on BALF cell numbers ([1]; 24 hours after dust mite challenge): not significant
- decrease of inflammatory cell migration into the BAL fluid ([1]; rabbit, in vivo): 68%
- eosinophils in BAL fluid ([1]; six hours after dust mite challenge, vehicle 8): 4 ×10^4 eosinophils/ml
- third cell count in BAL fluid (cell type not given) ([1]; six hours after dust mite challenge, vehicle 37): 12 ×10^4
- neutrophils in BAL fluid ([1]; six hours after dust mite challenge, vehicle 94): 29 ×10^4 neutrophils/ml
- number of eosinophils in BALF ([2]; 6 hours after allergen challenge): tended to decrease
- decrease of epithelial shedding [2, 10]: 54%
- reduction of number of neutrophils in the BALF [2, 10]: 91%
- reduction of cellular influx of cells into the BALF ([2]; 6 hours after allergen challenge, compared to Pulmicort, DHEA-S 10 mg/day nebulized, 5 days): 62%
- allergen-induced increase in neutrophils in BALF ([2]; 6 hours or 24 hours after allergen challenge): no allergen-induced increase in neutrophils
- number of eosinophils in BALF ([2]; 24 hours after allergen challenge): significant elevation
- total number of cells in the BALF compared to pre-challenge value ([2]; six hours following allergen challenge): did not
- reduction of eosinophilic inflammation compared with budesonide ([2]; summary statement): at least equivalent to budesonide
- reduction of neutrophilic inflammation compared with budesonide ([2]; summary statement): far superior
- reduction of area under the curve (AUC) of the methacholine response ([3]; aerosol 5 mg/ml suspension, 2 ml nebulized, two days): 46%
- mean area under the curve of Penh response to methacholine ([3]; ragweed only 7488.8, non-allergic saline 2646.8): 4038.0
- total area under the curve for the change in compliance following allergen challenge ([4]; AUC unit = % change×minutes, 15 minutes, saline −394±127): −49±116 units
- total area under the curve for the change in resistance following allergen challenge ([4]; AUC unit = % change×minutes, saline 564±266): 54±90 units
- attenuation of the increase in airway resistance following allergen challenge ([4]; compared to saline treatment): 90%
- attenuation of the drop in airway compliance following allergen challenge ([4]; nebulized 5 mg/ml, 2 ml once per day, 5 days, compared to saline treatment): 87%
- MTD [5]: > 2 mg/kg/day
- maximum tolerated dose [6]: could not be achieved
- adverse effects to the respiratory tract ([6]; up to the maximum feasible dose): did not produce any adverse affects
- histological evaluation of airway inflammation [7]: reduced inflammatory cell cuffing of the vessels and bronchi, bronchus-associated lymphoid tissue hyperplasia, and epithelial sloughing; also recorded: scored lower
- monocyte phagocytic hyperplasia ([8]; not significant): tended to increase
- necrotizing bronchitis ([8]; not significant): tended to decrease
- pavementing ([8]; statistically significant): decreased pavementing
